One series in a line: in vivo. To be noted: mouse, po.
In another series the test system is mice. As to conditions: reported value for metro; cited from earlier work.
The subject of series [1] is viral infections; cutaneous inflammation; eye disorders. To be noted: cited from earlier work.
For series [2] the following is noted: cited from earlier work.
The test system of series [3] is Chinese hamster ovary (CHO) cells. Description: in vitro radiosensitization of hypoxic CHO cells, colony formation (Table 1). As to conditions: drug dose 0.5 mM. Format: cell-based. The method, then: Cells were plated and allowed to attach on glass petri dishes for 3 h, then the media was replaced with 5 ml of Hank's balanced salt solution (HBSS) with or without drugs. To induce cell hypoxia, the dishes were placed at room temperature into sealed aluminum chambers (8 dishes/chamber). […] This procedure was repeated 4 times with 5 min holding periods under positive gas pressure between evacuations. After 1 h, when the cells were severely hypoxic, the chambers were placed in 37° C. water bath for 1 hr. For oxic treatment groups, cells were placed in 37° C. incubators for 2 h with 5 ml of HBSS (±drugs). The chambers were placed on a rotating table and exposed to an X-ray beam generated by a General Electric Maxitron 300 therapy machine operated at 250 kVp and 20 mA (HVL 20 mm Al filter; dose rate at 2 Gy/min). After irradiation, cells were rinsed with HBSS, and covered with fresh media. Cells were cultured for 7 days in a 37° C. incubator. The resulting cell colonies were stained and counted.

Series [4] in a line: in vitro toxicity on hypoxic CHO cells, colony formation. It counts as cell-based, Chinese hamster. As to conditions: hamster, cho cells, 10 mM, 12 hours at 37° C., read-out: reduction in colony formation. The method, then: Subsequently, hypoxic CHO cells were incubated with 0.2 mM DATM or 10 mM metro for 12 hours at 37° C.
The next series concerns CHO cells. Description: radiosensitization potency on hypoxic CHO cells at 20% survival, single X ray dose 8 Gy (Table 2). It counts as cell-based, Chinese hamster. To be noted: Cricetulus griseus, CHO; hypoxic, single X ray dose of 8 Gy; read-out: drug molarity required to reduce cell survival to 20% of the untreated control value. The procedure: Cells were plated and allowed to attach on glass petri dishes for 3 h, then the media was replaced with 5 ml of Hank's balanced salt solution (HBSS) with or without drugs. To induce cell hypoxia, the dishes were placed at room temperature into sealed aluminum chambers (8 dishes/chamber). The chambers were degassed by pumping, and then back-filled with 95% N2 and 5% CO2. This procedure was repeated 4 times with 5 min holding periods under positive gas pressure between evacuations. After 1 h, when the cells were severely hypoxic, the chambers were placed in 37° C. water bath for 1 hr. For oxic treatment groups, cells were placed in 37° C. incubators for 2 h with 5 ml of HBSS (±drugs). The chambers were placed on a rotating table and exposed to an X-ray beam generated by a General Electric Maxitron 300 therapy machine operated at 250 kVp and 20 mA (HVL 20 mm Al filter; dose rate at 2 Gy/min). After irradiation, cells were rinsed with HBSS, and covered with fresh media. Cells were cultured for 7 days in a 37° C. incubator. The resulting cell colonies were stained and counted.
In the experiment shown in Table 2 hypoxic CHO cells were irradiated with a single X ray dose of 8 Gy, with or without drugs.

The subject of another series is hypoxic CHO cells. Description: radiosensitizing hypoxic CHO cells, drugs given 2 hours at 4° C. It counts as cell-based, Chinese hamster.

We go through one compound from US6060604A, “Pharmaceutical compounds comprising polyamines substituted with electron-affinic groups” (priority 1996, dated 2000).

In the case of `Cc1ncc([N+](=O)[O-])n1CCO` [metronidazole, 1-(2-hydroxyethyl)-2-methyl-5-nitroimidazole], the median lethal dose (LD50) – broadly, the dose expected to kill half of the subjects tested – in the series “in vivo” is ~4000 mg/kg. Also, in the series on mice, the median lethal dose (LD50) result is on record as “about 3.3 g/kg”. In series [1], the “treatment of cutaneous inflammation due to dermatosis such as eczema, ulcers, acne, and rosacea” value is recorded as “effective”; the “treatment of eye disorders such as blepharoconjunctivitis and meibomian gland dysfunctions” value is given as “effective”; the “treatment of viral infections such as measles, herpes, and viral diverticulitis” value was “effective”. In series [2] (as radiosensitizers), the “toxicity at therapeutic levels” value is listed as “highly toxic at therapeutic levels”. The photosensitization entry in series [2] (dermatological use) was “photosensitizer”. Further, the Do in series [3] stood at 3.3 Gy. Also, the cytotoxicity at 12 h, 10000 µM in series [4] amounted to 95%. Moreover, the IC80 with CHO cells was found to be 10 mM. Moreover, the “radiosensitizing effectiveness, 0.2 mM DATM vs 10 mM metro” value with hypoxic CHO cells is on record as “equally effective”.
